Measured values: paper PMC12723449, “From Pharmacophore to Warhead: NAD^+‐Targeting Triazoles as Mechanism‐Based Sirtuin Inhibitors” (Angewandte Chemie (International Ed. in English), 2025)

Molecular target: T1, SIRT2 (Homo sapiens, UniProt Q8IXJ6)
T1 construct: For assay experiments, strep-tagged human SIRT1134−747 and SIRT256-356 were expressed and purified as previously; Strep-tag; made in house; host or cells: E. coli BL21 Star (DE3)
T1 sequence (Q8IXJ6 56-356 limits assumed): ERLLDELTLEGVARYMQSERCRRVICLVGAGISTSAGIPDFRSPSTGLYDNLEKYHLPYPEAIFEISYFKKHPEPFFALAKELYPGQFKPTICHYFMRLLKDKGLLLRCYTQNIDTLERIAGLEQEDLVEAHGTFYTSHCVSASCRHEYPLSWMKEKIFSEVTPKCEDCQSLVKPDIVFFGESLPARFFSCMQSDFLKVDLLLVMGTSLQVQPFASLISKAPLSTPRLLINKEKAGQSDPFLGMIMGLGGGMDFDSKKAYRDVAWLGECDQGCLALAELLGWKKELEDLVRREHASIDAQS
Experiment: Fluorescence polarization assay (FPA)
Type: binding
Conditions: with versus without NAD+
Experimental: Protein expression and purification for assays and crystallization
For assay experiments, strep-tagged human SIRT1134−747 and SIRT256-356 were expressed and purified as previously described.[2,4] Briefly, chemically competent E. coli BL21 Star (DE3) cells were transformed with pET30S-hSIRT1134−747 or pET30S-hSIRT256−356 plasmids. Cell cultures were grown in 2× YT medium (5 g/L NaCl, 16 g/L tryptone, 10 g/L yeast extract) supplemented with 50 μg/mL kanamycin at 37 °C reaching an OD600 of 0.6 − 0.7.
Protein expression of SIRT1134−747 and SIRT256−356 was induced with 1 mM IPTG (isopropyl β- D-1-thiogalactopyranoside), followed by incubation for 16 h at 20 °C. […]
Protein purity and identity were confirmed by SDS-PAGE and protein concentration was determined using the BCA assay with BSA as a standard. […] […]
A solution of 10 µL SIRT2 (final concentration of 6.0 µM) and SYPRO Orange (5x, Sigma-Aldrich, Germany) in assay buffer (25 mM Tris-HCl, 150 mM NaCl, 1 mM DTT, pH 8.0) was mixed with 10 µL of compound and incubated at 25 °C and 350 rpm for 5 min. […] Fluorescence intensity was recorded during a temperature gradient of 1°C per 20 s from 25 to 95°C using a real-time PCR machine (C1000 Touch™ Thermal Cycler, CFX96™ Real-Time System, BioRad, USA). […]

change of affinity upon NAD+ addition (FP)	SMILES
increased affinities upon NAD+ addition	COCCn1cc(COc2cccc(Cc3cnc(NC(=O)CSc4nc(C)cc(C)n4)s3)c2)nn1 [Compound 1, reference compound]
increased affinities upon NAD+ addition	Cc1cc(C)nc(SCC(=O)Nc2ncc(Cc3cccc(OCc4c[nH]nn4)c3)s2)n1 [Compound 7]
